Data as given in paper PMC4549708, “Inhibition of neuraminidase by Ganoderma triterpenoids and implications for neuraminidase inhibitor design” (Scientific Reports, 2015).
Read-outs that look alike come from different tables or passages of the source.

Key:
NA (H1N1,09) = NA (H1N1,09) (Influenza A virus, UniProt C3W5S3); assay: biochemical
NA (H5N1) [1] = target: T1, NA (H5N1) (Influenza A virus, UniProt K0C216); type: biochemical, Influenza A virus A/Hubei/1/2011(H5N1)
[2] = tested on: MDCK cells (Madin-Darby Canine Kidney cells)
Influenza B (B/Lee/40) = assay: microbe, parasite or virus in culture; type: cell-based
NA (H5N1) [3] = target: T1, NA (H5N1); assay: biochemical
NA (H7N9) = type: biochemical; conditions: 200 µM
[4] = tested on: H5N2 (A/Duck/Pennsylvania/84); assay: microbe, parasite or virus in culture; type: cell-based; conditions: unidentified influenza virus, H5N2, MDCK
in vitro [5] = conditions: human
in vitro [6] = conditions: dog
[7] = tested on: influenza A H1N1 (A/WSN/33); conditions: cellular assay; cited from earlier work

CC(=O)O[C@H]1C[C@H]([C@H](C)CC/C=C(\C)C(=O)O)[C@@]2(C)CC=C3C(=CC[C@H]4C(C)(C)C(=O)CC[C@]34C)[C@]12C [Compound 1, Ganoderic acid T-Q]
Inhibition rate (%) NA(H1N1,09) (NA (H1N1,09); 200 μM of each compound, n = 3, means ± standard deviation): 81.7 ± 1.7%
IC50 (NA (H1N1,09); in vitro NA inhibition assay (n = 3)): 5.6 ± 1.9 µM
Kiu (ESI dissociation constant) (NA (H5N1) [1]): 17.39
higher affinity to free NA than to the NA-substrate complex (NA (H5N1) [1]): 2.5 fold
mode of inhibition (NA (H5N1) [1]): mixed inhibition mode
CC50 [2]: 41.1 µM
IC50 (Influenza B (B/Lee/40); read-out: IC50): 190 µM
CC50 (MCF7 cells): 28.2 ± 0.8 µM
IC50 (NA (H5N1) [3]): 1.2 ± 1 µM
Inhibition rate (%) NA (H5N1) (NA (H5N1) [3]; 200 µM): 94.4 ± 0.4%
Inhibition rate (%) NA(H7N9) (NA (H7N9)): 27.4 ± 1.2%

C/C(=C\CC[C@@H](C)[C@H]1C[C@H](O)[C@@]2(C)C3=CC[C@H]4C(C)(C)C(=O)CC[C@]4(C)C3=CC[C@]12C)C(=O)O [Compound 2, Ganoderic acid TR]
IC50 [4]: 324 µM
IC50 (Influenza B (B/Lee/40); Influenza B virus, MDCK): 166 µM
CC50 (in vitro [5]): 91.6 ± 3.4 µM
inhibition at 200 µM (NA (H5N1) [3]; read-out: Inhibition rate (%) NA (H5N1)): 96.5 ± 0.3%
Inhibition rate (%) NA(H7N9) (NA (H7N9)): 24.0 ± 1.8%
CC50 (in vitro [6]): 299 µM

CC(CC(=O)C[C@@](C)(O)C1=C[C@H](O)[C@]2(C)[C@]1(C)C(=O)C=C1[C@@]3(C)CCC(=O)C(C)(C)[C@@H]3C[C@H]3O[C@@]132)C(=O)O (some centres unmarked) [applanoxidic acid G]
IC50 [7]: 190 µM

CC(=CCC[C@@H](C)[C@H]1CC[C@@]2(C)C3=CC[C@H]4C(C)(C)[C@@H](O)CC[C@]4(C)C3=CC[C@]12C)CO [ganodermadiol]
IC50 [7]: > 220 µM

C/C(=C\CC[C@@H](C)[C@H]1CC[C@@]2(C)C3=C(CC[C@]12C)[C@@]1(C)CC[C@H](O)C(C)(C)[C@@H]1CC3=O)CO [lucidadiol]
IC50 [7]: 220 µM
